In patent publication US10772836B2, “Method for producing particles” (RICOH COMPANY, LTD., priority 2016, dated 2020):
Blank lines part the entries; values can stand above or below the compound they belong to.

Tests used:
[1] = Evaluation test for dissolution property in intrapulmonary-environment imitating liquid (Test Example 7); format: physicochemical; conditions: 37 degrees Celsius, 30 spm
Method: Ten milligrams of the pharmaceutical particles were added to 100 mL of an intrapulmonary-environment imitating liquid (0.169 g of magnesium chloride, 5.016 g of sodium chloride, 0.249 g of potassium chloride, 0.059 g of anhydrous sodium sulfate, 0.306 g of calcium chloride dehydrate, 0.794 g of sodium acetate trihydrate, 2.170 g of sodium hydrogen carbonate, 0.080 g of sodium citrate dehydrate, 0.118 g of disodium hydrogen-phosphate, and 0.167 g of dipalmitoylphosphatidylcholine in 1 L of water). […] Thus, the “dissolution property” was evaluated.

[2] = system: blood calcium concentration; experiment: Drug efficacy after transpulmonary administration, blood calcium concentration (Test Example 9); format: in vivo; conditions: male SD rats, transpulmonary 40 micrograms/animal in terms of CALCITONIN, time zero = 100%
Method: A powder preparation prepared using the pharmaceutical particles of Example 3 was evaluated for a drug efficacy after transpulmonary administration. The powder preparation was prepared by mixing the pharmaceutical particles of Example 3 with lactose (average particle diameter: 50 micrometers, RESPITOSE, available from DMV Japan) in an amount of 5 times as much as the amount of the pharmaceutical particles. The powder preparation was transpulmonary administrated (40 micrograms/animal in terms of CALCITONIN) to male SD rats (from 6 to 8 week-old, available from Japan SLC, Inc.) and then a blood calcium concentration after the administration was measured over time. As a control group, a simply mixed powder was prepared by molding a mixture of CALCITONIN bulk powder and lactose. The CALCITONIN has a pharmacological action of decreasing the blood calcium concentration. Therefore, the blood calcium concentration was selected as an indicator for evaluating the drug efficacy of the pharmaceutical particles of Example 3. The pharmaceutical particles were transpulmonary administrated by inserting an inhaler (DP-4, available from Ina Research Inc.) into the airway under inhalation anesthesia with isoflurane and feeding compressed air. A time point immediately before the transpulmonary administration was defined as time zero. Change in blood calcium concentration over time was evaluated assuming that a blood calcium concentration at the time zero was 100%. The blood calcium concentration was measured using a METALLOASSAY calcium (Ca) measurement LS kit CPZIII (available from Metallogenics Co., Ltd.).

[3] = Oral absorbability of […], blood drug concentration after oral administration (Test Example 6); format: in vivo; conditions: rat, plasma, male SD rats, single oral dose 10 mg/kg in terms of […]
Method: In order to evaluate an oral absorbability of the pharmaceutical particles produced in Example 2, the pharmaceutical particles of Example 2 and […] bulk powder were orally administrated to male SD rats (from 6 to 8 week-old, available from Japan SLC, Inc.) and then blood drug concentrations were measured over time. Each powder was suspended in water and administrated through a single-dose forced oral administration to the male SD rats at 10 mg/kg in terms of […]. After the oral administration, blood was collected from tail veins over time, transferred to heparinized micro test tubes, and cooled with ice immediately. After the cooling, the blood was rapidly centrifuged to obtain blood plasma. The resultant blood plasma was quantified by an ultra-high performance liquid chromatography (available from Waters) equipped with, as a detector, a single quadrupole mass spectrometer (ACQUITY SQD, available from Waters).

Dissolution amount ([1]; time 0 hour): 0 µg/mL
Dissolution amount ([1]; time 0.25 hour): 9.56 ± 0.03 µg/mL
Dissolution amount ([1]; time 0.5 hour): 9.88 ± 0.13 µg/mL
Dissolution amount ([1]; time 1 hour): 9.68 ± 0.20 µg/mL
Dissolution amount ([1]; time 2 hour): 9.09 ± 0.04 µg/mL
Dissolution amount ([1]; time 4 hour): 9.01 ± 0.44 µg/mL
Dissolution amount ([1]; time 6 hour): 9.39 ± 0.14 µg/mL
Dissolution amount ([1]; time 12 hour): 8.59 ± 0.15 µg/mL
Dissolution amount ([1]; time 60 hour): 8.63 ± 0.02 µg/mL
Compound: Calcitonin [Calcitonin bulk powder]
Blood calcium concentration ([2]; time 0 h): 100%
Blood calcium concentration ([2]; time 0.25 h): 81.7 ± 11.6%
Blood calcium concentration ([2]; time 0.5 h): 74.6 ± 0.9%
Blood calcium concentration ([2]; time 1 h): 81.1 ± 10.1%
Blood calcium concentration ([2]; time 2 h): 79.5 ± 7.1%
Blood calcium concentration ([2]; time 4 h): 96.7 ± 5.1%
Blood calcium concentration ([2]; time 6 h): 99.1 ± 12.6%
Blood calcium concentration ([2]; time 8 h): 102.1 ± 15.9%
Blood calcium concentration ([2]; time 12 h): 104.3 ± 13.8%
Blood calcium concentration ([2]; time 24 h): 110.9 ± 5.5%

bioavailability [3]: 1.2%
AUC(0-inf) [3]: 800 ± 400 ng·h/mL
Cmax [3]: 100 ng/mL
Tmax [3]: 1.8 ± 0.7 h
half-life [3]: 2.9 ± 0.7 h
Compound: COc1ccc(/C=C/C(=O)Nc2ccccc2C(=O)O)cc1OC [Tranilast]
